Like-named read-outs stand apart in the source and are kept apart here. Where only a bound is given, the exact number is not on record here.

In the experiment the target is BRD4 (BD1+BD2) bromodomain (Homo sapiens (Human), UniProt O60885). Description: BRD4 binding inhibition (AlphaScreen, GST-BRD4 vs tetraacetylated histone H4 peptide). In outline: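 GST-BRD4 (BD1+BD2) and biotinylated tetraacetyl-histone H4 peptide, each at 100 nM in HEPES pH 7.4 buffer with BSA and DTT, were combined with compound. Glutathione acceptor and streptavidin donor beads were added, then incubated 30 min at room temperature in the dark. Read-out was AlphaScreen signal.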

The mark [1] stands for this setting: GST-BRD4 (BD1+BD2) vs biotinylated acetyl-histone H4 peptide, AlphaScreen, read-out: BRD4 IC50.
Where [2] appears, read: GST-BRD4 (BD1+BD2) / biotinylated acetyl-histone H4 (Lys5,8,12,16) peptide, read-out: IC50, BRD4 binding inhibition.

On to `COc1ccc2c(c1)nc(NCCCCNC(=O)N(C)C)c1nnc(C)n12` [Example 334, 3-[4-(7-methoxy-1-methyl-[1,2,4]triazolo[4,3-a]quinoxaline-4-ylamino)-butyl]-1,1-dimethyl-urea], for which the IC50 under setting [1] was found to be 60 nM.
Take `COc1cc2nc(NCCCCNC(=O)CC(C)C)c3nnc(C)n3c2cc1Cc1ccc([N+](=O)[O-])cc1` [Example 339, N-{4-[7-methoxy-1-methyl-8-(4-nitro-benzyl)-[1,2,4]triazolo[4,3-a]quinoxaline-4-ylamino]-butyl}-3-methyl-butyramide]: the IC50 runs as follows: under setting [2], no more than 50 nM; under setting [1], 46 nM.
`Cc1nnc2c(NCCCCNC(=O)CC(C)C)nc3cc(OCc4ccc(-c5nn[nH]n5)cc4)ccc3n12` [Example 348, 3-methyl-N-(4-{1-methyl-7-[4-(2H-tetrazol-5-yl)-benzyloxy]-[1,2,4]triazolo[4,3-a]quinoxaline-4-ylamino}-butyl)-butyramide]: the IC50 under setting [1] was 100 nM.
Consider `COCCOc1ccc2c(c1)nc(NCCCCNC(=O)OC(C)(C)C)c1nnc(C)n12` [Example 363, {4-[7-(2-methoxy-ethoxy)-1-methyl-[1,2,4]triazolo[4,3-a]quinoxaline-4-ylamino]-butyl}-carbamic acid-tert-butylester], for which the IC50 under setting [2] is no more than 50 nM and the IC50 under setting [1] came out at 16 nM.
On to `COCCOc1ccc2c(c1)nc(NCCCCN)c1nnc(C)n12` [Example 364, N^1-[7-(2-methoxy-ethoxy)-1-methyl-[1,2,4]triazolo[4,3-a]quinoxaline-4-yl]-butane-1,4-diamine ditrifluoroacetic acid], for which the IC50 under setting [1] came to 98 nM.
As to `COCCOc1ccc2c(c1)nc(NCCCCNC(=O)C(C)C)c1nnc(C)n12` [Example 376, {4-[7-(2-methoxy-ethoxy)-1-methyl-[1,2,4]triazolo[4,3-a]quinoxaline-4-ylamino]-butyl}-isobutyramide], the IC50 under setting [2] is no more than 50 nM.
On to `COCCOc1ccc2c(c1)nc(NCCCCNC(=O)C1CC1)c1nnc(C)n12` [Example 377, cyclopropane carboxylic acid-{4-[7-(2-methoxy-ethoxy)-1-methyl-[1,2,4]triazolo[4,3-a]quinoxaline-4-ylamino]-butyl}-amide], for which the IC50 was no more than 50 nM under setting [2] and 39 nM under setting [1].
Take `COCCOc1ccc2c(c1)nc(NCCCCNC(=O)C(C)(C)OC(C)=O)c1nnc(C)n12` [Example 384, acetic acid-1-{4-[7-(2-methoxy-ethoxy)-1-methyl-[1,2,4]triazolo[4,3-a]quinoxaline-4-ylamino]-butylcarbamoyl}-1-methyl-ethylester]: the IC50 runs as follows: under setting [2], no more than 50 nM; under setting [1], 41 nM.
Turning to `COCCOc1ccc2c(c1)nc(NCCCCNC(=O)C(C)(C)O)c1nnc(C)n12` [Example 385, 2-hydroxy-N-{4-(7-(2-methoxy-ethoxy)-1-methyl-[1,2,4]triazolo[4,3-a]quinoxaline-4-ylamino)-butyl}-2-methyl-propionamide], the IC50 runs as follows: under setting [2], no more than 50 nM; under setting [1], 49 nM.
Turning to `COCCOc1ccc2c(c1)nc(NCCCCNC(=O)COC(C)=O)c1nnc(C)n12` [Example 386, acetic acid-{4-[7-(2-methoxy-ethoxy)-1-methyl-[1,2,4]triazolo[4,3-a]quinoxaline-4-ylamino]-butylcarbamoyl}-methylester], the IC50 under setting [1] turned out to be 78 nM.
As for `COCCOc1ccc2c(c1)nc(NCCCCNC(=O)C(C)(C)C(F)(F)F)c1nnc(C)n12` [Example 392, 3,3,3-trifluoro-N-{4-[7-(2-methoxy-ethoxy)-1-methyl-[1,2,4]triazolo[4,3-a]quinoxaline-4-ylamino]-butyl}-2,2-dimethyl-propionamide], the IC50 runs as follows: under setting [2], no more than 10 nM; under setting [1], 9 nM.
The like results for `CCOC(=O)CC(=O)NCCCCNc1nc2cc(OCCOC)ccc2n2c(C)nnc12` [Example 394, N-{4-[7-(2-methoxy-ethoxy)-1-methyl-[1,2,4]triazolo[4,3-a]quinoxaline-4-ylamino]-butyl}-malonamic acid ethylester] were, in that order, no more than 50 nM and 34 nM.
The like results for `COCCOc1ccc2c(c1)nc(NCCCCNC(=O)[C@@H](NC(=O)CC(C)C)C(C)C)c1nnc(C)n12` [Example 401, (S)-N-{4-[7-(2-methoxy-ethoxy)-1-methyl-[1,2,4]triazolo[4,3-a]quinoxaline-4-ylamino]-butyl}-3-methyl-2-(3-methyl-butyrylamino)-butyramide] were, in that order, no more than 50 nM and 12 nM.
The like results for `COCCOc1ccc2c(c1)nc(NCCCCNC(=O)[C@@H](NC(=O)C(C)(C)C)C(C)C)c1nnc(C)n12` [Example 402, (S)-2-(2,2-dimethyl-propionylamino)-N-{4-[7-(2-methoxy-ethoxy)-1-methyl-[1,2,4]triazolo[4,3-a]quinoxaline-4-ylamino]-butyl}-3-methyl-butyramide] were, in that order, no more than 50 nM and 18 nM.
Consider `COCCOc1ccc2c(c1)nc(NCCCCNC(=O)[C@@H](NC(=O)[C@@H](O)C(C)C)C(C)C)c1nnc(C)n12` [Example 404, 2-(S,S)-hydroxy-N-(1-{4-[7-(2-methoxy-ethoxy)-1-methyl-[1,2,4]triazolo[4,3-a]quinoxaline-4-ylamino]-butylcarbamoyl}-2-methyl-propyl)-3-methyl-butyramide], for which the concentration for half-maximal inhibition (IC50) reads like this: under setting [2], no more than 50 nM; under setting [1], 15 nM.
`COCCOc1ccc2c(c1)nc(NCCCCNC(=O)[C@@H](NS(C)(=O)=O)C(C)C)c1nnc(C)n12` [Example 405, 2-(S)-methanesulfonylamino-{4-[7-(2-methoxy-ethoxy)-1-methyl-[1,2,4]triazolo[4,3-a]quinoxaline-4-ylamino]-butyl}-3-methyl-butyramide]: the IC50 under setting [2] was no more than 50 nM.
Turning to `COCCOc1ccc2c(c1)nc(NCCCCNC(=O)c1ccccn1)c1nnc(C)n12` [Example 416, pyridine-2-carboxylic acid-{4-[7-(2-methoxy-ethoxy)-1-methyl-[1,2,4]triazolo[4,3-a]quinoxaline-4-ylamino]-butyl}-amide], the IC50 under setting [1] worked out at 52 nM.
Same read-out and setting: to `COCCOc1ccc2c(c1)nc(NCCCCNC(=O)c1cccnc1)c1nnc(C)n12` [Example 417, N-{4-[7-(2-methoxy-ethoxy)-1-methyl-[1,2,4]triazolo[4,3-a]quinoxaline-4-ylamino]-butyl}-nicotinamide] belongs 60 nM.
Consider `COCCOc1ccc2c(c1)nc(NCCCCNC(=O)c1ccncc1)c1nnc(C)n12` [Example 418, N-{4-[7-(2-methoxy-ethoxy)-1-methyl-[1,2,4]triazolo[4,3-a]quinoxaline-4-ylamino]-butyl}-isonicotinamide], for which the IC50 reads like this: under setting [2], no more than 50 nM; under setting [1], 49 nM.
Turning to `CCNC(=O)NCCCCNc1nc2cc(OCCOC)ccc2n2c(C)nnc12` [Example 423, 1-ethyl-3-{4-[7-(2-methoxy-ethoxy)-1-methyl-[1,2,4]triazolo[4,3-a]quinoxaline-4-ylamino]-butyl}-urea], the IC50 under setting [2] is no more than 50 nM and the concentration for half-maximal inhibition (IC50) under setting [1] is 27 nM.
As for `COCCOc1ccc2c(c1)nc(NCCCCNC(=O)NC(C)(C)C)c1nnc(C)n12` [Example 424, 1-tert-butyl-3-{4-[7-(2-methoxy-ethoxy)-1-methyl-[1,2,4]triazolo[4,3-a]quinoxaline-4-ylamino]-butyl}-urea], the IC50 reads like this: under setting [2], no more than 50 nM; under setting [1], 25 nM.
The like results for `COCCOc1ccc2c(c1)nc(NCCCCNC(=O)N1CCOCC1)c1nnc(C)n12` [Example 425, morpholine-4-carboxylic acid-{4-[7-(2-methoxy-ethoxy)-1-methyl-[1,2,4]triazolo[4,3-a]quinoxaline-4-ylamino]-butyl}-amide] were, in that order, no more than 50 nM and 28 nM.
In the case of `COCCOc1ccc2c(c1)nc(NCCCCNC(=O)Nc1ccccc1)c1nnc(C)n12` [Example 427, 3-{4-[7-(2-methoxy-ethoxy)-1-methyl-[1,2,4]triazolo[4,3-a]quinoxaline-4-ylamino]-butyl}-1-phenyl-urea], the IC50 was no more than 50 nM under setting [2] and 17 nM under setting [1].
As for `COCCOc1ccc2c(c1)nc(NCCCCNC(=O)SC(C)C)c1nnc(C)n12` [Example 428, {4-[7-(2-methoxy-ethoxy)-1-methyl-[1,2,4]triazolo[4,3-a]quinoxaline-4-ylamino]-butyl}-thiocarbamic acid-S-isopropylester], the IC50 under setting [2] is no more than 10 nM and the IC50 under setting [1] stood at 4 nM.
Consider `Cc1nnc2c(NCCCCNC(=O)[C@H](O)C(C)C)nc3cc(OCCN4CCOCC4)ccc3n12` [Example 434, 2-(R)-hydroxy-N-{4-[7-(2-morpholine-4-yl-ethoxy)-1-methyl-[1,2,4]triazolo[4,3-a]quinoxaline-4-ylamino]-butyl}-3-methyl-butyramide], for which the IC50 reads like this: under setting [2], no more than 50 nM; under setting [1], 21 nM.
With `Cc1nnc2c(NCCCCNC(=O)OC(C)(C)C)nc3cc(OC(C)C)ccc3n12` [Example 447, [4-(7-isopropoxy-1-methyl-[1,2,4]triazolo[4,3-a]quinoxaline-4-ylamino)-butyl]-carbamic acid-tert-butylester], the IC50 under setting [2] is no more than 50 nM and the IC50 under setting [1] amounted to 21 nM.
For `Cc1nnc2c(NCCCCN)nc3cc(OC(C)C)ccc3n12` [Example 448, N^1-(7-isopropoxy-1-methyl-[1,2,4]triazolo[4,3-a]quinoxaline-4-yl)-butane-1,4-diamine ditrifluoroacetic acid] the same measures were no more than 10 nM and 5 nM.
With `COc1cc(C)c2c(c1)nc(NCCCCNC(=O)OC(C)(C)C)c1nnc(C)n12` [Example 455, [4-(7-methoxy-1,9-dimethyl-[1,2,4]triazolo[4,3-a]quinoxaline-4-ylamino)-butyl]-carbamic acid-tert-butylester], the IC50 is no more than 50 nM under setting [2] and 31 nM under setting [1].

The record behind these values is patent US11028090B2 (Dong Wha Pharm. Co., Ltd., priority 2017, dated 2021).
